Measured values as given in US11407831B2, “Pharmaceutical composition administered in combination with substituted dihydropyrrolopyrazole compound and immunotherapeutic agent” (UBE INDUSTRIES, LTD., priority 2017, dated 2022).

How the values were obtained:
[1] = system: Mouse melanoma cells (B16F10); assay: Mouse Melanoma (B16F10) Cell Growth Inhibition Test; type: cell-based; settings: B16-F10, 72 h, 3 days culture, CellTiter-Glo (ATP)
Protocol: Mouse melanoma cells (B16F10) (Cell Resource Center for Biomedical Research, Institute of Development, Aging and Cancer, Tohoku University, Cat. No. TKG0348) were cultured in DMEM medium (REF. 11965-092 manufactured by GIBCO/Thermo Fisher Scientific Inc.) containing 10% FBS (REF. 10082-147 manufactured by GIBCO/Thermo Fisher Scientific Inc.), 1% penicillin/streptomycin/amphotericin B (REF. 15240-096 manufactured by GIBCO/Thermo Fisher Scientific Inc.), and 1 mM sodium pyruvate (REF. 11360-070 manufactured by GIBCO/Thermo Fisher Scientific Inc.) and inoculated at 0.5 to 2.0×10^3 cells/well to a 96-well plate. After overnight culture in a carbon dioxide incubator, culture was further performed for 3 days in a medium containing a solution of a test compound in DMSO (final DMSO concentration: 0.1%), and then, the amount of ATP was measured using CellTiter-Glo (manufactured by Promega Corp.).
The rate of inhibition of cell growth at each concentration was calculated from the test compound concentration and the amount of ATP, and the concentration of the test compound necessary for inhibiting 50% of cell growth (GI50 value) was calculated by using EXSUS (version 8.1.0, manufactured by CAC Croit Corp.).

[2] = system: Mouse melanoma cells (B16F10) subcutaneously transplanted; assay: In Vivo Tumor Growth Inhibition Test in Mouse Melanoma Cell (B16F10)-Subcutaneously Transplanted Mouse; set-up: species or system C57BL/6 mice; settings: day 7
Protocol: Mouse melanoma cells (B16F10) (Cell Resource Center for Biomedical Research, Institute of Development, Aging and Cancer, Tohoku University, Cat. No. TKG0348) were cultured in DMEM medium (REF. 11965-092 manufactured by GIBCO/Thermo Fisher Scientific Inc.) containing 10% FBS (REF. 10082-147 manufactured by GIBCO/Thermo Fisher Scientific Inc.), 1% penicillin/streptomycin/amphotericin B (REF. 15240-096 manufactured by GIBCO/Thermo Fisher Scientific Inc.), and 1 mM sodium pyruvate (REF. 11360-070 manufactured by GIBCO/Thermo Fisher Scientific Inc.) and adjusted to 1.0×10^7 cells/mL with PBS (REF. 10010-031 manufactured by GIBCO/Thermo Fisher Scientific Inc.). The prepared cell suspension was subcutaneously injected at 0.1 mL/mouse to the right abdomens of C57BL/6 mice (female, supplied by Japan SLC, Inc.). After rearing for a certain period, the long diameter (mm) and short diameter (mm) of tumor were measured with electronic calipers (manufactured by Mitsutoyo Corp., Cat. 500-712-10), and the tumor volume was calculated according to the following expression: Tumor volume (mm^3)=(Long diameter)×(Short diameter)×(Short diameter)×0.5
Individuals whose tumor volume was within the range of 50 to 200 mm^3 were selected and grouped such that the tumor volume was almost equivalent, then an anti-PD-1 antibody (manufactured by Bio X Cell) at 250 μg/mouse or Rat IgG2a (manufactured by Bio X Cell) at 250 μg/mouse was intraperitoneally administered, and further a test compound (25 mg/kg or 100 mg/kg) or only a solvent was orally administered to each group. The initial day of the start of administration was defined as day 0, and the anti-PD-1 antibody or Rat IgG2a were intraperitoneally administered on day 0 and day 3, and the test compound or only the solvent was orally administered once a day from day 0 to day 6. On day 7, the long diameter and short diameter of tumor were measured, and the tumor volume was calculated.

[3] = test compound oral (25 mg/kg or 100 mg/kg) once a day day 0 to 6 + Rat IgG2a 250 μg/mouse i.p. day 0 and 3, vs Rat IgG2a + solvent group
[4] = test compound oral (25 mg/kg or 100 mg/kg) once a day day 0 to 6 in combination with anti-PD-1 antibody 250 μg/mouse i.p. day 0 and 3

| SMILES | GI50 [1] [nM] | Rate of inhibition of increase in tumor volume [2, 3] | Rate of inhibition of increase in tumor volume [2, 4] |
| --- | --- | --- | --- |
| CC1(C)c2[nH]nc(NC(=O)C3([Si](C)(C)C)CCC3)c2CN1C(=O)Nc1c(F)cccc1Cl [II-113, N-(2-Chloro-6-fluorophenyl)-6,6-dimethyl-3-[1-(trimethylsilyl)cyclobutanecarboxamido]-4,6-dihydropyrrolo[3,4-c]pyrazole-5(1H)-carboxamide] | ≤ 2000 |  |  |
| CC1(C)c2[nH]nc(NC(=O)C3([Si](C)(C)C)CCC3)c2CN1C(=O)Nc1c(F)ccc2cc(Cl)oc12 [II-1063, N-(2-Chloro-6-fluorobenzofuran-7-yl)-6,6-dimethyl-3-[1-(trimethylsilyl)cyclobutanecarboxamido]-4,6-dihydropyrrolo[3,4-c]pyrazole-5(1H)-carboxamide] | ≤ 2000 | D (10% or more and less than 30%) | B (50% or more and less than 70%) |
| Cc1cccc(Br)c1NC(=O)N1Cc2c(NC(=O)C3([Si](C)(C)C)CCC3)n[nH]c2C1(C)C [II-299, N-(2-Bromo-6-methylphenyl)-6,6-dimethyl-3-[1-(trimethylsilyl)cyclobutanecarboxamido]-4,6-dihydropyrrolo[3,4-c]pyrazole-5(1H)-carboxamide] | ≤ 2000 |  |  |
| CC1(C)c2[nH]nc(NC(=O)C3([Si](C)(C)C)CCC3)c2CN1C(=O)Nc1c(F)ccc2ccoc12 [II-1049, N-(6-Fluorobenzofuran-7-yl)-6,6-dimethyl-3-[1-(trimethylsilyl)cyclobutanecarboxamido]-4,6-dihydropyrrolo[3,4-c]pyrazole-5(1H)-carboxamide] | ≤ 2000 |  |  |
| Cc1cccc(Cl)c1NC(=O)N1Cc2c(NC(=O)C3([Si](C)(C)C)CCC3)n[nH]c2C1(C)C [II-215, N-(2-Chloro-6-methylphenyl)-6,6-dimethyl-3-[1-(trimethylsilyl)cyclobutanecarboxamido]-4,6-dihydropyrrolo[3,4-c]pyrazole-5(1H)-carboxamide] | ≤ 2000 | B (50% or more and less than 70%) | A (70% or more and less than 90%) |
| Cc1cc2ccc(F)c(NC(=O)N3Cc4c(NC(=O)C5([Si](C)(C)C)CCC5)n[nH]c4C3(C)C)c2o1 [II-1059, N-(6-Fluoro-2-methylbenzofuran-7-yl)-6,6-dimethyl-3-[1-(trimethylsilyl)cyclobutanecarboxamido]-4,6-dihydropyrrolo[3,4-c]pyrazole-5(1H)-carboxamide] | ≤ 2000 |  |  |

Further lines, with some results ahead:

| GI50 [1] [nM] | SMILES | Rate of inhibition of increase in tumor volume [2, 3] | Rate of inhibition of increase in tumor volume [2, 4] |
| --- | --- | --- | --- |
| ≤ 2000 | Cc1ccc(F)cc1NC(=O)N1Cc2c(NC(=O)C3([Si](C)(C)C)CCC3)n[nH]c2C1(C)C [II-361, N-(5-Fluoro-2-methylphenyl)-6,6-dimethyl-3-[1-(trimethylsilyl)cyclobutanecarboxamido]-4,6-dihydropyrrolo[3,4-c]pyrazole-5(1H)-carboxamide] |  |  |
| ≤ 2000 | Cc1ccccc1NC(=O)N1Cc2c(NC(=O)C3([Si](C)(C)C)CCC3)n[nH]c2C1(C)C [II-21, 6,6-Dimethyl-N-(o-tolyl)-3-[1-(trimethylsilyl)cyclobutanecarboxamido]-4,6-dihydropyrrolo[3,4-c]pyrazole-5(1H)-carboxamide] |  |  |
| ≤ 2000 | Cc1ccc(C)c(NC(=O)N2Cc3c(NC(=O)C4([Si](C)(C)C)CCC4)n[nH]c3C2(C)C)c1 [II-379, N-(2,5-Dimethylphenyl)-6,6-dimethyl-3-[1-(trimethylsilyl)cyclobutanecarboxamido]-4,6-dihydropyrrolo[3,4-c]pyrazole-5(1H)-carboxamide] | B (50% or more and less than 70%) | A (70% or more and less than 90%) |
| ≤ 2000 | Cc1ccc(C)c(NC(=O)N2Cc3c(NC(=O)C4([Si](C)(C)C)CCC4)n[nH]c3C2(C)C)c1F [II-669, N-(2-Fluoro-3,6-dimethylphenyl)-6,6-dimethyl-3-[1-(trimethylsilyl)cyclobutanecarboxamido]-4,6-dihydropyrrolo[3,4-c]pyrazole-5(1H)-carboxamide] |  |  |
